From patent US20190048016A1, “SUBSTITUTED BRIDGED UREA ANALOGS AS SIRTUIN MODULATORS” (GlaxoSmithKline Intellectual Property(No.2)Limited, priority 2014, published 2019)

Target: T1, SIRT1 (Homo sapiens, UniProt Q96EB6)
T1 sequence (Q96EB6 1-747): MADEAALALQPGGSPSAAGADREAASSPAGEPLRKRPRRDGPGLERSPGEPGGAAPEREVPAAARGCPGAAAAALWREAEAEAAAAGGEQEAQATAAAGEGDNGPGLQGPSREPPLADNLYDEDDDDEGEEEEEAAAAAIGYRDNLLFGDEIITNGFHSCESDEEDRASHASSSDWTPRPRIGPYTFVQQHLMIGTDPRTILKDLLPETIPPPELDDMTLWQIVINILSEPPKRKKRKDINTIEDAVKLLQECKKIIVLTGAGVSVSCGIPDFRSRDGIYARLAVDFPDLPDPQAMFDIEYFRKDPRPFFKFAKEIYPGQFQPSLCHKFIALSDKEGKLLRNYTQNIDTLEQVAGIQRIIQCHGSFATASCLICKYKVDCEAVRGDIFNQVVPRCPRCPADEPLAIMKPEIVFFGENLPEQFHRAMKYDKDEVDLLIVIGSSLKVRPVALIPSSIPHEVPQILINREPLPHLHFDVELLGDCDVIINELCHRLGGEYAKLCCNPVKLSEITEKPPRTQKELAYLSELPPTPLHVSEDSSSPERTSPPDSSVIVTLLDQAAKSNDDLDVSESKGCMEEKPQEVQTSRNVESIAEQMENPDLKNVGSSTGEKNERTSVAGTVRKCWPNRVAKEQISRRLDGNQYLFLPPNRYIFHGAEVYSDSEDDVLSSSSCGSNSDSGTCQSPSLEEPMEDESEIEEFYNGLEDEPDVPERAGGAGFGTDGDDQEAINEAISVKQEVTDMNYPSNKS
Assay: Trp mass spectrometry assay of SIRT1 activation (deacetylation of Ac-R-H-K-K(Ac)-W-NH2 peptide, OAADPR formation)
Assay type: biochemical
Settings: Trp peptide 0.5 μM, 120 μM βNAD+, 10 nM SIRT1, 25 min, 25° C.; for Emax: 25 min, read-out: TRP MAX RESP (percent maximum fold activation relative to control = 100%)
Outline: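 10 nM His-tagged SIRT1 (E. coli expressed) with 0.5 μM Ac-RHKK(Ac)W-NH2 and 120 μM βNAD+, 25 min at 25° C, HEPES pH 7.5, […]; formic acid stop. OAADPR or deacetylated peptide measured by mass spectrometry; EC1.5 = concentration giving 150% activity versus DMSO control; maximum activation also reported.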

Compound	Emax	TRP Activity (EC1.5, concentration of compound required to increase SIRT1 activity by 50% over control)
O=C(Nc1ccc(OC[C@@H](O)CO)cn1)N1c2nc(-c3cccc(C(F)(F)F)c3)c(Cl)cc2N2CCC[C@H]1C2 [Example 74, (9S)-3-chloro-N-(5-((S)-2,3-dihydroxypropoxy)pyridin-2-yl)-2-(3-(trifluoromethyl)phenyl)-8,9-dihydro-6H-5,9-methanopyrido[2,3-b][1,4]diazocine-10(7H)-carboxamide]	≥ 150%	A (EC1.5<1 μM)
O=C(Nc1nccc(OC[C@@H](O)CO)n1)N1c2nc(-c3cccc(C(F)(F)F)c3)c(Cl)cc2N2CCC[C@H]1C2 [Example 75]	≥ 150%	A (EC1.5<1 μM)
O=C(Nc1cncc(OC[C@H](O)CO)c1)N1c2nc(-c3cccc(C(F)(F)F)c3)c(Cl)cc2N2CCC[C@H]1C2 [Example 76, (9S)-3-chloro-N-(5-((R)-2,3-dihydroxypropoxy)pyridin-3-yl)-2-(3-(trifluoromethyl)phenyl)-8,9-dihydro-6H-5,9-methanopyrido[2,3-b][1,4]diazocine-10(7H)-carboxamide]	≥ 150%	A (EC1.5<1 μM)
O=C(Nc1nccc(OC[C@H](O)CO)n1)N1c2nc(-c3cccc(C(F)(F)F)c3)c(Cl)cc2N2CCC[C@H]1C2 [Example 78, (9S)-3-chloro-N-(4-((R)-2,3-dihydroxypropoxy)pyrimidin-2-yl)-2-(3-(trifluoromethyl)phenyl)-8,9-dihydro-6H-5,9-methanopyrido[2,3-b][1,4]diazocine-10(7H)-carboxamide]	≥ 150%	A (EC1.5<1 μM)
O=C(Nc1ccc(OC[C@H](O)CO)nc1)N1c2nc(-c3cccc(C(F)(F)F)c3)c(Cl)cc2N2CCC[C@H]1C2 [Example 79, (9S)-3-chloro-N-(6-((R)-2,3-dihydroxypropoxy)pyridin-3-yl)-2-(3-(trifluoromethyl)phenyl)-8,9-dihydro-6H-5,9-methanopyrido[2,3-b][1,4]diazocine-10(7H)-carboxamide]	≥ 150%	A (EC1.5<1 μM)
O=C(Nc1cncc(OC[C@@H](O)CO)c1)N1c2nc(-c3cccc(C(F)(F)F)c3)c(Cl)cc2N2CCC[C@H]1C2 [Example 80, (9S)-3-chloro-N-(5-((S)-2,3-dihydroxypropoxy)pyridin-3-yl)-2-(3-(trifluoromethyl)phenyl)-8,9-dihydro-6H-5,9-methanopyrido[2,3-b][1,4]diazocine-10(7H)-carboxamide]	≥ 150%	A (EC1.5<1 μM)
O=C(Nc1ccc(OC[C@@H](O)CO)nc1)N1c2nc(-c3cccc(C(F)(F)F)c3)c(Cl)cc2N2CCC[C@H]1C2 [Example 84, (9S)-3-chloro-N-(6-((S)-2,3-dihydroxypropoxy)pyridin-3-yl)-2-(3-(trifluoromethyl)phenyl)-8,9-dihydro-6H-5,9-methanopyrido[2,3-b][1,4]diazocine-10(7H)-carboxamide]	≥ 150%	A (EC1.5<1 μM)
O=C(Nc1ccc(OC[C@H](O)CO)cn1)N1c2nc(-c3cccc(C(F)(F)F)c3)c(Cl)cc2N2CCC[C@H]1C2 [Example 87, (9S)-3-chloro-N-(5-((R)-2,3-dihydroxypropoxy)pyridin-2-yl)-2-(3-(trifluoromethyl)phenyl)-8,9-dihydro-6H-5,9-methanopyrido[2,3-b][1,4]diazocine-10(7H)-carboxamide]	≥ 150%	A (EC1.5<1 μM)
O=C(Nc1ncc(OC[C@H](O)CO)cn1)N1c2nc(-c3cccc(C(F)(F)F)c3)c(Cl)cc2N2CCC[C@H]1C2 [Example 89, (9S)-3-chloro-N-(5-((R)-2,3-dihydroxypropoxy)pyrimidin-2-yl)-2-(3-(trifluoromethyl)phenyl)-8,9-dihydro-6H-5,9-methanopyrido[2,3-b][1,4]diazocine-10(7H)-carboxamide]	≥ 150%	A (EC1.5<1 μM)
Cc1cc(-c2cc(C)c3c(n2)N(C(=O)Nc2cccnc2)[C@H]2CCCN3C2)ccn1 [Example 90, (9S)-4-methyl-2-(2-methylpyridin-4-yl)-N-(pyridin-3-yl)-8,9-dihydro-6H-5,9-methanopyrido[2,3-b][1,4]diazocine-10(7H)-carboxamide]	≥ 150%	A (EC1.5<1 μM)
Cc1cc2c(nc1-c1cccc(C(F)(F)F)c1)N(C(=O)Nc1cc(OC[C@H](O)CO)ccn1)[C@H]1CCCN2C1 [Example 91, (9S)-N-(4-((R)-2,3-dihydroxypropoxy)pyridin-2-yl)-3-methyl-2-(3-(trifluoromethyl)phenyl)-8,9-dihydro-6H-5,9-methanopyrido[2,3-b][1,4]diazocine-10(7H)-carboxamide]	≥ 150%	A (EC1.5<1 μM)

Other lines, results leading:

Emax	TRP Activity (EC1.5, concentration of compound required to increase SIRT1 activity by 50% over control)	Compound
≥ 150%	A (EC1.5<1 μM)	O=C(Nc1cnc(OC[C@@H](O)CO)cn1)N1c2nc(-c3cccc(C(F)(F)F)c3)c(Cl)cc2N2CCC[C@H]1C2 [Example 77, (9S)-3-chloro-N-(5-((S)-2,3-dihydroxypropoxy)pyrazin-2-yl)-2-(3-(trifluoromethyl)phenyl)-8,9-dihydro-6H-5,9-methanopyrido[2,3-b][1,4]diazocine-10(7H)-carboxamide]
≥ 150%	A (EC1.5<1 μM)	O=C(Nc1ccnc(OC[C@@H](O)CO)n1)N1c2nc(-c3cccc(C(F)(F)F)c3)c(Cl)cc2N2CCC[C@H]1C2 [Example 81, (9S)-3-chloro-N-(2-((S)-2,3-dihydroxypropoxy)pyrimidin-4-yl)-2-(3-(trifluoromethyl)phenyl)-8,9-dihydro-6H-5,9-methanopyrido[2,3-b][1,4]diazocine-10(7H)-carboxamide]
≥ 150%	A (EC1.5<1 μM)	O=C(Nc1cc(OC[C@H](O)CO)ccn1)N1c2nc(-c3cccc(C(F)(F)F)c3)c(Cl)cc2N2CCC[C@H]1C2 [Example 82, (9S)-3-chloro-N-(4-((R)-2,3-dihydroxypropoxy)pyridin-2-yl)-2-(3-(trifluoromethyl)phenyl)-8,9-dihydro-6H-5,9-methanopyrido[2,3-b][1,4]diazocine-10(7H)-carboxamide]
≥ 150%	A (EC1.5<1 μM)	O=C(Nc1ccnc(OC[C@@H](O)CO)c1)N1c2nc(-c3cccc(C(F)(F)F)c3)c(Cl)cc2N2CCC[C@H]1C2 [Example 83, (9S)-3-chloro-N-(2-((S)-2,3-dihydroxypropoxy)pyridin-4-yl)-2-(3-(trifluoromethyl)phenyl)-8,9-dihydro-6H-5,9-methanopyrido[2,3-b][1,4]diazocine-10(7H)-carboxamide]
≥ 150%	A (EC1.5<1 μM)	O=C(Nc1ccnc(OC[C@H](O)CO)c1)N1c2nc(-c3cccc(C(F)(F)F)c3)c(Cl)cc2N2CCC[C@H]1C2 [Example 85, (9S)-3-chloro-N-(2-((R)-2,3-dihydroxypropoxy)pyridin-4-yl)-2-(3-(trifluoromethyl)phenyl)-8,9-dihydro-6H-5,9-methanopyrido[2,3-b][1,4]diazocine-10(7H)-carboxamide]
≥ 150%	A (EC1.5<1 μM)	O=C(Nc1cc(OC[C@@H](O)CO)ncn1)N1c2nc(-c3cccc(C(F)(F)F)c3)c(Cl)cc2N2CCC[C@H]1C2 [Example 86]
≥ 150%	A (EC1.5<1 μM)	O=C(Nc1ccnc(OC[C@H](O)CO)n1)N1c2nc(-c3cccc(C(F)(F)F)c3)c(Cl)cc2N2CCC[C@H]1C2 [Example 88, (9S)-3-chloro-N-(2-((R)-2,3-dihydroxypropoxy)pyrimidin-4-yl)-2-(3-(trifluoromethyl)phenyl)-8,9-dihydro-6H-5,9-methanopyrido[2,3-b][1,4]diazocine-10(7H)-carboxamide]
